Measurements taken from patent US20140007502A1, “METHODS AND COMPOSITIONS FOR INCREASED PLANT YIELD” (priority 2011, published 2014).

Key:
Assay type in all cases: in vivo
[1] = tested on: maize variety Terada (NK Seeds); test: Maize field trial yield, Oise, France (Example 4); details: treatment at BBCH 14, 182 days
Source text: (§1) Plots of suitable size in Valais, Switzerland were planted with maize hybrid COOLER™ (NK Seeds) at a conventional amount of seeds per hectare (in this example, 99,000) and at an increased density amount of seeds per hectare (in this example, 125,000).
(§2) Each density area was divided into four separate treatments—an untreated control, treatment with trinexapac ethyl (0.6 l/Ha of MODDUS™ 250EC which has 250 g trinexapac ethyl per liter) at BBCH 14, treatment with azoyxstrobin (1 l/Ha of a formulated product having 141.4 g azoxystrobin per liter in the form of QUILT® (Syngenta Crop Protection AG) which also contains 122.4 g propiconazole per liter) at BBCH 14, and treatment with trinexapac ethyl (0.6 l/Ha of 250 g/l product) and azoxystrobin (1 l/Ha of 141.4 g/l product) at BBCH 14.
(§3) Best practices were used consistently across the test plots with regard to field conditions such as fertilisation and irrigation and all other measures like weed and insect control. There was no fungal disease pressure. After a growing season of 188 days (29 Apr. 2011 to 3 Nov. 2011), each plot was harvested using a standard harvester. After shelling, the kernels were weighed at 14% moisture and the calculations extrapolated to a ton per hectare yield.
Plots were prepared and treated according to the procedure described in Example 2. The differences were that the location was Oise, France and the variety was Terada (NK Seeds). The growing season was 182 days (14 Apr. 2011 to 13 Oct. 2011).

[2] = tested on: maize variety Famoso (NK Seeds); test: Maize field trial yield, Milano, Italy, 158 days (Example 5); details: treatment at BBCH 14
Source text: as §1, §2, §3
Plots were prepared and treated according to the procedure described in Example 2. The differences were that the location was Milano, Italy and the variety was Famoso (NK Seeds). The growing season was 158 days (15 Apr. 2011 to 20 Sep. 2011).

[3] = tested on: maize variety DeliTop (NK Seeds); test: Maize field trial yield, Niedersachsen, Germany (Example 6); details: treatment at BBCH 14, 184 days
Source text: as §1, §2, §3
Plots were prepared and treated according to the procedure described in Example 2. The differences were that the location was Niedersachsen, Germany and the variety was DeliTop (NK Seeds). The growing season was 184 days (1 May 2011 to 1 Nov. 2011).

[4] = tested on: maize hybrid COOLER (NK Seeds); test: Maize field trial yield, Valais, Switzerland (Example 2); details: treatment at BBCH 14, 188 days
Source text: as §1, §2, §3

[5] = tested on: maize hybrid (Famoso, NK Seeds); test: Maize field plots, kernel yield at conventional and increased plant density (Example 1); details: kernels at 14% moisture
Source text: Plots measuring 25×40 meters were planted with a common maize hybrid (Famoso, NK Seeds). Eight plots were planted according to density strategies considered optimum prior to the disclosure of the present invention: rows were spaced 75 cm apart, allowing for 16 rows per plot which had 19 cm between plants. Another eight plots were planted with maize at increased density: spacing between rows was 45 cm, giving 24 rows per plot with 22 cm between plants. Thus the density was 7 plants/m^2 for conventional density and 10 plants/m^2 for increased density.
In the 8 plots of conventional density two were untreated controls. Three were treated with a foliar application at stage BBCH 14-15; one with trinexapac ethyl, one with azoxystrobin, and one with a mixture of trinexapac and azoyxstrobin. The remaining three were treated with a foliar application at stage BBCH 31-32; one with trinexapac ethyl, one with azoxystrobin, and one with a mixture of trinexapac and azoyxstrobin. The 8 plots planted at increased density were treated at the same stages and with the same agents as for the conventional density plots. Best practices were used consistently across the test plots with regard to field conditions such as fertilisation and irrigation and all other measures like weed and insect control.
At maturity, each plot was harvested using a standard harvester. After shelling, the kernels were weighed at 14% moisture and the calculations extrapolated to a ton per hectare yield.

[6] = tested on: maize variety Famoso (NK Seeds); test: Maize field trial yield, Milano, Italy, 163 days (Example 3); details: treatment at BBCH 14
Source text: as §1, §2, §3
Plots were prepared and treated according to the procedure described in Example 2. The differences were that the location was Milano, Italy and the variety was Famoso (NK Seeds). The growing season was 163 days (18 Apr. 2011 to 28 Sep. 2011).

[7] = plant density 7 plants/m^2, foliar application at BBCH 14-15
[8] = plant density 7 plants/m^2, foliar application at BBCH 31-32
[9] = plant density 10 plants/m^2, foliar application at BBCH 14-15
[10] = plant density 10 plants/m^2, foliar application at BBCH 31-32

CO/C=C(/C(=O)OC)c1ccccc1Oc1cc(Oc2ccccc2C#N)ncn1 [Azoxystrobin, azoxystrobin]
Yield ([1]; 70,000 seeds per hectare): 11.2 tons/ha
Yield ([1]; 100,000 seeds per hectare): 13.6 tons/ha
Yield ([2]; 74,000 seeds per hectare): 14.0 tons/ha
Yield ([2]; 94,000 seeds per hectare): 15.0 tons/ha
Yield ([3]; 72,000 seeds per hectare): 11.4 tons/ha
Yield ([3]; 111,000 seeds per hectare): 11.1 tons/ha
Yield ([4]; 99,000 seeds per hectare): 14.1 tons/ha
Yield ([4]; 125,000 seeds per hectare): 17.8 tons/ha
Yield [5, 7]: 16.67 tons/ha
Yield [5, 8]: 17.28 tons/ha
Yield [5, 9]: 20.11 tons/ha
Yield [5, 10]: 19.58 tons/ha
Yield ([6]; 73,000 seeds per hectare): 11.6 tons/ha
Yield ([6]; 94,000 seeds per hectare): 12.2 tons/ha

CCOC(=O)C1CC(=O)C(=C(O)C2CC2)C(=O)C1 (stereo not shown) [Trinexapac Ethyl, trinexapac ethyl]
Yield ([1]; 70,000 seeds per hectare): 10.5 tons/ha
Yield ([1]; 100,000 seeds per hectare): 14.6 tons/ha
Yield ([2]; 74,000 seeds per hectare): 13.7 tons/ha
Yield ([2]; 94,000 seeds per hectare): 14.7 tons/ha
Yield ([3]; 72,000 seeds per hectare): 11.4 tons/ha
Yield ([3]; 111,000 seeds per hectare): 11.0 tons/ha
Yield ([4]; 99,000 seeds per hectare): 14.0 tons/ha
Yield ([4]; 125,000 seeds per hectare): 18.6 tons/ha
Yield [5, 7]: 16.82 tons/ha
Yield [5, 8]: 16.70 tons/ha
Yield [5, 9]: 19.85 tons/ha
Yield [5, 10]: 19.41 tons/ha
Yield ([6]; 73,000 seeds per hectare): 11.3 tons/ha
Yield ([6]; 94,000 seeds per hectare): 12.1 tons/ha
